Test results taken from PubChem BioAssay AID2060899 (Molecular Pharmacology Branch, DTP, NCI, 2025).
pIC50: −log10 of the molar value.

System: 565726-208-R1-J5-PDC complex spheroids, growth inhibition
Assay: Anticancer human tumor 565726-208-R1-J5-PDC patient-derived pancreatic adenocarcinoma cell line growth inhibition [RAS]
Settings: for viability, T/C: stronger effect = lower value
Procedure, shortened: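 Agents were tested in combination matrices in half-log decrements from a top concentration at or near clinical Cmax (10 microM if undetermined). Targets were multi-cell spheroids of tumour lines plus HUVEC and MSC stromal cells.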

[1] = curve of first compound, second compound 0.0316 µM
[2] = curve of first compound, second compound 0.1 µM
[3] = curve of first compound, second compound 0.316 µM
[4] = curve of first compound, second compound 1 µM
[5] = second compound 0.0316 µM, first compound 0.0316 µM
[6] = second compound 0.0316 µM, first compound 0.1 µM
[7] = second compound 0.0316 µM, first compound 0.316 µM
[8] = second compound 0.0316 µM, first compound 1 µM
[9] = second compound 0.0316 µM, first compound 3.16 µM
[10] = second compound 0.0316 µM, first compound 10 µM
[11] = second compound 0.1 µM, first compound 0.0316 µM
[12] = second compound 0.1 µM, first compound 0.1 µM
[13] = second compound 0.1 µM, first compound 0.316 µM
[14] = second compound 0.1 µM, first compound 1 µM
[15] = second compound 0.1 µM, first compound 3.16 µM
[16] = second compound 0.1 µM, first compound 10 µM
[17] = second compound 0.316 µM, first compound 0.0316 µM
[18] = second compound 0.316 µM, first compound 0.1 µM
[19] = second compound 0.316 µM, first compound 0.316 µM
[20] = second compound 0.316 µM, first compound 1 µM
[21] = second compound 0.316 µM, first compound 3.16 µM
[22] = second compound 0.316 µM, first compound 10 µM
[23] = second compound 1 µM, first compound 0.0316 µM
[24] = second compound 1 µM, first compound 0.1 µM
[25] = second compound 1 µM, first compound 0.316 µM
[26] = second compound 1 µM, first compound 1 µM
[27] = second compound 1 µM, first compound 3.16 µM
[28] = second compound 1 µM, first compound 10 µM
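Further: spheroids exposed to compounds for seven days before readout.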
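Wherever viability, T/C is given: 100% = DMSO vehicle control viability.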

## Cc1nc(N2CCC3(CC2)COC(C)C3N)c(CO)nc1Sc1ccnc(N)c1Cl (stereo not drawn) + C#Cc1c(F)ccc2cc(O)cc(-c3ncc4c(N5CC6CCC(C5)N6)nc(OCC56CCCN5CC(F)C6)nc4c3F)c12
[1]
  pIC50: < 5.00
[2]
  pIC50: < 5.00
[3]
  pIC50: < 5.00
[4]
  pIC50: < 5.00
Curve of first compound, second compound 3.16 µM
  pIC50: 6.50
Curve of first compound, second compound 10 µM
  pIC50: 6.64
[5]
  viability, T/C: 116%
[6]
  viability, T/C: 125%
[7]
  viability, T/C: 79.6%
[8]
  viability, T/C: 77.1%
[9]
  viability, T/C: 90.7%
[10]
  viability, T/C: 104%
[11]
  viability, T/C: 103%
[12]
  viability, T/C: 112%
[13]
  viability, T/C: 71.6%
[14]
  viability, T/C: 72.8%
[15]
  viability, T/C: 92.4%
[16]
  viability, T/C: 101%
[17]
  viability, T/C: 130%
[18]
  viability, T/C: 108%
[19]
  viability, T/C: 74.5%
[20]
  viability, T/C: 67.8%
[21]
  viability, T/C: 90.2%
[22]
  viability, T/C: 80.3%
[23]
  viability, T/C: 119%
[24]
  viability, T/C: 106%
[25]
  viability, T/C: 55.8%
[26]
  viability, T/C: 53.4%
[27]
  viability, T/C: 57.8%
[28]
  viability, T/C: 71.1%
Second compound 3.16 µM, first compound 0.0316 µM
  viability, T/C: 108%
Second compound 3.16 µM, first compound 0.1 µM
  viability, T/C: 94.5%
Second compound 3.16 µM, first compound 0.316 µM
  viability, T/C: 49.6%
Second compound 3.16 µM, first compound 1 µM
  viability, T/C: 42.8%
Second compound 3.16 µM, first compound 3.16 µM
  viability, T/C: 46%
Second compound 3.16 µM, first compound 10 µM
  viability, T/C: 57.3%
Second compound 10 µM, first compound 0.0316 µM
  viability, T/C: 80.9%
Second compound 10 µM, first compound 0.1 µM
  viability, T/C: 66.1%
Second compound 10 µM, first compound 0.316 µM
  viability, T/C: 43.5%
Second compound 10 µM, first compound 1 µM
  viability, T/C: 35.9%
Second compound 10 µM, first compound 3.16 µM
  viability, T/C: 34.6%
Second compound 10 µM, first compound 10 µM
  viability, T/C: 33%

## C[C@@H](NC(=O)c1ncnc(N)c1Cl)c1ncc(C(=O)Nc2cc(C(F)(F)F)c(Cl)cn2)s1 + C=CC(=O)N1CCN(c2nc(OCC3CCCN3C)nc3c(F)c(-c4nc(N)cc(C)c4C(F)(F)F)c(Cl)cc23)C(C)C1
Curve of first compound, second compound 0.00316 µM
  pIC50: < 5.00
Curve of first compound, second compound 0.01 µM
  pIC50: < 5.00
[1]
  pIC50: < 5.00
[2]
  pIC50: < 5.00
[3]
  pIC50: < 5.00
[4]
  pIC50: < 5.00
Second compound 0.00316 µM, first compound 0.0316 µM
  viability, T/C: 119%
Second compound 0.00316 µM, first compound 0.1 µM
  viability, T/C: 151%
Second compound 0.00316 µM, first compound 0.316 µM
  viability, T/C: 88.8%
Second compound 0.00316 µM, first compound 1 µM
  viability, T/C: 98.3%
Second compound 0.00316 µM, first compound 3.16 µM
  viability, T/C: 77.7%
Second compound 0.00316 µM, first compound 10 µM
  viability, T/C: 78.3%
Second compound 0.01 µM, first compound 0.0316 µM
  viability, T/C: 95.5%
Second compound 0.01 µM, first compound 0.1 µM
  viability, T/C: 140%
Second compound 0.01 µM, first compound 0.316 µM
  viability, T/C: 94.5%
Second compound 0.01 µM, first compound 1 µM
  viability, T/C: 89.1%
Second compound 0.01 µM, first compound 3.16 µM
  viability, T/C: 91.9%
Second compound 0.01 µM, first compound 10 µM
  viability, T/C: 67.8%
[5]
  viability, T/C: 115%
[6]
  viability, T/C: 129%
[7]
  viability, T/C: 92.8%
[8]
  viability, T/C: 99.3%
[9]
  viability, T/C: 88.2%
[10]
  viability, T/C: 70.9%
[11]
  viability, T/C: 120%
[12]
  viability, T/C: 123%
[13]
  viability, T/C: 102%
[14]
  viability, T/C: 97.2%
[15]
  viability, T/C: 98.7%
[16]
  viability, T/C: 83.4%
[17]
  viability, T/C: 86.7%
[18]
  viability, T/C: 128%
[19]
  viability, T/C: 104%
[20]
  viability, T/C: 101%
[21]
  viability, T/C: 106%
[22]
  viability, T/C: 76.9%
[23]
  viability, T/C: 89.1%
[24]
  viability, T/C: 120%
[25]
  viability, T/C: 108%
[26]
  viability, T/C: 114%
[27]
  viability, T/C: 86.4%
[28]
  viability, T/C: 74.6%

## Cc1nc(N2CCC3(CC2)COC(C)C3N)c(CO)nc1Sc1ccnc(N)c1Cl (stereo not drawn)
Compound 0.0316 µM
  viability, T/C: 106% [middle of 4 runs]
Compound 0.316 µM
  viability, T/C: 85.7% [middle of 4 runs]
Compound 1 µM
  viability, T/C: 81.1% [middle of 4 runs]
Curve of compound
  pIC50: < 5.00
